Assay results from US10174024B2, “5H-pyrido[3,2-B]indole compounds as anticancer agents” (BRISTOL-MYERS SQUIBB COMPANY, priority 2015, dated 2019).

Target: BRD4 (Homo sapiens, UniProt O60885)
Experiment: Time Resolved Fluorescence Resonance Energy Transfer (TR-FRET) binding assay, FRET BRD4
Settings: one of the FRET assays described (BRD4 bromodomain construct not specified); read-out: FRET BRD4 IC50

| IC50 | Structure (SMILES) |
| --- | --- |
| < 1 nM | [2H]C([2H])([2H])c1nnn(C)c1-c1cnc2c3ccc(C4(C)COC(=O)N4)c(F)c3n([C@H](c3ccccc3)C3CCOCC3)c2c1 (stereo partly drawn) [Example 56, 4-{6-Fluoro-3-[4-(^2H3)methyl-1-methyl-1H-1,2,3-triazol-5-yl]-5-[(S)-oxan-4-yl(phenyl)methyl]-5H-pyrido[3,2-b]indol-7-yl}-4-methyl-1,3-oxazolidin-2-one] |
| < 1500 nM | [2H]C([2H])([2H])c1nnn(C)c1-c1cnc2c3c(N4CCC(F)(F)CC4)ccc(S(C)(=O)=O)c3n(C(c3ccccc3)C3CCC(F)(F)CC3)c2c1 (stereo not shown) [Example 73, 1-{5-[(4,4-Difluorocyclohexyl)(phenyl)methyl]-6-methanesulfonyl-3-[4-(^2H3)methyl-1-methyl-1H-1,2,3-triazol-5-yl]-5H-pyrido[3,2-b]indol-9-yl}-4,4-difluoropiperidine] |
| < 1 nM | [2H]C([2H])([2H])c1nnn(C)c1-c1ccc2c3ncc(-c4c(C([2H])([2H])[2H])nnn4C)cc3n([C@H](c3ccccc3)C3CCOCC3)c2c1 [Example 31, 4-(^2H3)Methyl-1-methyl-5-{7-[4-(^2H3)methyl-1-methyl-1H-1,2,3-triazol-5-yl]-5-[(S)-oxan-4-yl(phenyl)methyl]-5H-pyrido[3,2-b]indol-3-yl}-1H-1,2,3-triazole] |
| < 1 nM | [2H]C([2H])([2H])c1nnn(C)c1-c1cnc2c3ccc(N4CCC(S(C)(=O)=O)CC4)cc3n(C(c3ncccc3F)C3CCOCC3)c2c1 (stereo not shown) [Example 69, 3-Fluoro-2-{[7-(4-methanesulfonylpiperidin-1-yl)-3-[4-(^2H3)methyl-1-methyl-1H-1,2,3-triazol-5-yl]-5H-pyrido[3,2-b]indol-5-yl](oxan-4-yl)methyl}pyridine] |
| < 5 nM | [2H]C([2H])([2H])c1nnn(C)c1-c1cnc2c3ccc(N4CCC(F)(F)CC4)cc3n(C(c3ncccc3F)C3CCOCC3)c2c1 (stereo not shown) [Example 66, 2-{[7-(4,4-Difluoropiperidin-1-yl)-3-[4-(^2H3)methyl-1-methyl-1H-1,2,3-triazol-5-yl]-5H-pyrido[3,2-b]indol-5-yl](oxan-4-yl)methyl}-3-fluoropyridine] |
| < 1 nM | COc1nnn(C)c1-c1ccc2c3ncc(-c4c(OC)nnn4C)cc3n([C@H](c3ccccc3)C3CCOCC3)c2c1 [Example 32, 4-Methoxy-5-[7-(4-methoxy-1-methyl-1H-1,2,3-triazol-5-yl)-5-[(S)-oxan-4-yl(phenyl)methyl]-5H-pyrido[3,2-b]indol-3-yl]-1-methyl-1H-1,2,3-triazole] |
| < 5 nM | [2H]C([2H])([2H])n1nnc(OC)c1-c1ccc2c3ncc(-c4c(OC)nnn4C([2H])([2H])[2H])cc3n([C@H](c3ccccc3)C3CCOCC3)c2c1 [Example 30, 4-Methoxy-5-{7-[4-methoxy-1-(^2H3)methyl-1H-1,2,3-triazol-5-yl]-5-[(S)-oxan-4-yl(phenyl)-methyl]-5H-pyrido[3,2-b]indol-3-yl}-1-(^2H3)methyl-1H-1,2,3-triazole] |
| < 5 nM | [2H]C([2H])([2H])c1nnn(C)c1-c1cnc2c3ccc(N4CCS(=O)(=O)CC4)cc3n(C(c3ncccc3F)C3CCOCC3)c2c1 (stereo not shown) [Example 67, 4-{5-[(3-Fluoropyridin-2-yl)(oxan-4-yl)methyl]-3-[4-(^2H3)methyl-1-methyl-1H-1,2,3-triazol-5-yl]-5H-pyrido[3,2-b]indol-7-yl}-1λ^6,4-thiomorpholine-1,1-dione] |
| < 1 nM | [2H]C([2H])([2H])c1nnn(C)c1-c1cnc2c3c(N4CCCS4(=O)=O)ccc(S(C)(=O)=O)c3n(C(c3ncccc3F)C3CCOCC3)c2c1 (stereo not shown) [Example 35, 2-{5-[(3-Fluoropyridin-2-yl)(oxan-4-yl)methyl]-6-methanesulfonyl-3-[4-(^2H3)methyl-1-methyl-1H-1,2,3-triazol-5-yl]-5H-pyrido[3,2-b]indol-9-yl}-1λ^6,2-thiazolidine-1,1-dione] |
| < 1 nM | [2H]C([2H])([2H])c1nnn(C)c1-c1cnc2c3ccc(C4(O)CCOC4)c(F)c3n([C@H](c3ccccc3)C3CCOCC3)c2c1 (stereo partly drawn) [Example 64, 3-{6-Fluoro-3-[4-(^2H3)methyl-1-methyl-1H-1,2,3-triazol-5-yl]-5-[(S)-oxan-4-yl(phenyl)methyl]-5H-pyrido[3,2-b]indol-7-yl}oxolan-3-ol] |

Second part, the compound before the results:

| Structure (SMILES) | IC50 |
| --- | --- |
| CC(=O)OCC(=O)N1CCN(c2ccc3c(c2)c2ncc(-c4c(C)nnn4C)cc2n3[C@H](c2ccccc2)C2CCOCC2)CC1 [Example 14, 2-{4-[3-(Dimethyl-1H-1,2,3-triazol-5-yl)-5-[(S)-oxan-4-yl(phenyl)methyl]-5H-pyrido[3,2-b]indol-8-yl]piperazin-1-yl}-2-oxoethyl acetate] | < 5 nM |
| Cc1nnn(C)c1-c1cnc2c3ccc(N4CCN(C5CCN(C)CC5)CC4)cc3n([C@H](c3ccccc3)C3CCOCC3)c2c1 [Example 48, 1-[3-(Dimethyl-1H-1,2,3-triazol-5-yl)-5-[(S)-oxan-4-yl(phenyl)methyl]-5H-pyrido[3,2-b]indol-7-yl]-4-(1-methylpiperidin-4-yl)piperazine] | < 1 nM |
| [2H]C([2H])([2H])c1nnn(C)c1-c1cnc2c3cc(N4CCS(=O)(=O)[C@H](C)C4)ccc3n([C@H](c3ccccc3F)C3CCOCC3)c2c1 [Example 51, (2R)-4-{5-[(S)-(2-Fluorophenyl)(oxan-4-yl)methyl]-3-[4-(^2Ha)methyl-1-methyl-1H-1,2,3-triazol-5-yl]-5H-pyrido[3,2-b]indol-8-yl}-2-methyl-1λ^6,4-thiomorpholine-1,1-dione] | < 1 nM |
| CC(=O)N1CCC(c2ccc3c(c2)c2ncc(-c4c(C)noc4C)cc2n3[C@H](c2ccccc2)C2CCOCC2)CC1 [Example 7, 1-{4-[3-(Dimethyl-1,2-oxazol-4-yl)-5-[(S)-oxan-4-yl(phenyl)methyl]-5H-pyrido[3,2-b]indol-8-yl]piperidin-1-yl}ethan-1-one] | < 1 nM |
| Cc1n[nH]c(C)c1-c1ccc2c3ncc(-c4c(C)nnn4C)cc3n([C@H](c3ccccc3)C3CCOCC3)c2c1 [Example 17, 5-[7-(3,5-Dimethyl-1H-pyrazol-4-yl)-5-[(S)-oxan-4-yl(phenyl)methyl]-5H-pyrido[3,2-b]indol-3-yl]-1,4-dimethyl-1H-1,2,3-triazole] | < 1 nM |
| Cc1nnn(C)c1-c1cnc2c3ccc(-c4ccnn4C)cc3n([C@H](c3ccccc3)C3CCOCC3)c2c1 [Example 1, 1,4-Dimethyl-5-[7-(1-methyl-1H-pyrazol-5-yl)-5-[(S)-oxan-4-yl(phenyl)methyl]-5H-pyrido[3,2-b]indol-3-yl]-1H-1,2,3-triazole] | < 5 nM |
| [2H]C([2H])([2H])c1nnn(C)c1-c1cnc2c3cc(N4CCN(S(C)(=O)=O)CC4)ccc3n([C@H](c3ccccc3F)C3CCOCC3)c2c1 [Example 42, 1-{5-[(S)-(2-Fluorophenyl)(oxan-4-yl)methyl]-3-[4-(^2Ha)methyl-1-methyl-1H-1,2,3-triazol-5-yl]-5H-pyrido[3,2-b]indol-8-yl}-4-methanesulfonylpiperazine] | < 5 nM |
| Cc1nnn(C)c1-c1cnc2c3ccc(N4CCC(F)(F)CC4)cc3n(C(c3ccccc3)C3CCC(F)(F)CC3)c2c1 (single isomer, unassigned) [Example 76, 1-{5-[(4,4-Difluorocyclohexyl)(phenyl)methyl]-3-(dimethyl-1H-1,2,3-triazol-5-yl)-5H-pyrido[3,2-b]indol-7-yl}-4,4-difluoropiperidine] | < 5 nM |
| [2H]C([2H])([2H])c1nnn(C)c1-c1cnc2c3c(N4CCCS4(=O)=O)ccc(S(C)(=O)=O)c3n(C(c3ncccc3F)C3CCOCC3)c2c1 (stereo not shown) [Example 36, 2-{5-[(3-Fluoropyridin-2-yl)(oxan-4-yl)methyl]-6-methanesulfonyl-3-[4-(^2H3)methyl-1-methyl-1H-1,2,3-triazol-5-yl]-5H-pyrido[3,2-b]indol-9-yl}-1λ^6,2-thiazolidine-1,1-dione] | < 1500 nM |
| Cc1nnn(C)c1-c1cnc2c3c(N4CCCCS4(=O)=O)ccc(S(C)(=O)=O)c3n([C@H](c3ccccc3)C3CCOCC3)c2c1 [Example 20, 2-[3-(Dimethyl-1H-1,2,3-triazol-5-yl)-6-methanesulfonyl-5-[(S)-oxan-4-yl(phenyl)methyl]-5H-pyrido[3,2-b]indol-9-yl]-1λ^6,2-thiazinane-1,1-dione] | < 1 nM |
| Cc1nnn(C)c1-c1cnc2c3c(N4CCN(CC(N)=O)CC4)ccc(S(C)(=O)=O)c3n([C@H](c3ccccc3)C3CCOCC3)c2c1 [Example 22, 2-{4-[3-(Dimethyl-1H-1,2,3-triazol-5-yl)-6-methanesulfonyl-5-[(S)-oxan-4-yl(phenyl)methyl]-5H-pyrido[3,2-b]indol-9-yl]piperazin-1-yl}acetamide] | < 5 nM |
| Cc1nnn(C)c1-c1cnc2c3ccc(N4CCC(F)(F)CC4)cc3n([C@H](c3ccccc3)C3CCOCC3)c2c1 [Example 71, 1-[3-(Dimethyl-1H-1,2,3-triazol-5-yl)-5-[(S)-oxan-4-yl(phenyl)methyl]-5H-pyrido[3,2-b]indol-7-yl]-4,4-difluoropiperidine] | < 1 nM |
| [2H]C([2H])([2H])c1nnn(C)c1-c1cnc2c3cc(N4CCN(S(C)(=O)=O)CC4)ccc3n([C@H](c3ccc(F)cc3)C3CCOCC3)c2c1 [Example 40, 1-{5-[(S)-(4-Fluorophenyl)(oxan-4-yl)methyl]-3-[4-(^2H3)methyl-1-methyl-1H-1,2,3-triazol-5-yl]-5H-pyrido[3,2-b]indol-8-yl}-4-methanesulfonylpiperazine] | < 1 nM |
| CC(=O)OCC(=O)N1CCC(c2ccc3c(c2)c2ncc(-c4c(C)nnn4C)cc2n3[C@H](c2ccccc2)C2CCOCC2)CC1 [Example 8, 2-{4-[3-(Dimethyl-1H-1,2,3-triazol-5-yl)-5-[(S)-oxan-4-yl(phenyl)methyl]-5H-pyrido[3,2-b]indol-8-yl]piperidin-1-yl}-2-oxoethyl acetate] | < 5 nM |
| [2H]C([2H])([2H])c1nnn(C)c1-c1cnc2c3cc(N4CCS(=O)(=O)[C@@H](C)C4)ccc3n([C@H](c3ccccc3F)C3CCOCC3)c2c1 [Example 52, (2S)-4-{5-[(S)-(2-Fluorophenyl)(oxan-4-yl)methyl]-3-[4-(^2H3)methyl-1-methyl-1H-1,2,3-triazol-5-yl]-5H-pyrido[3,2-b]indol-8-yl}-2-methyl-11λ^6,4-thiomorpholine-1,1-dione] | < 1 nM |
